Measured values taken from patent US20220281848A1, “PYRAZOLE-SUBSTITUTED PYRROLIDINONES AS HERBICIDES” (FMC Corporation, priority 2019, published 2022).

Experiments:
Assay type in all cases: in vivo
[1] = test system: giant foxtail (Setaria faberi, SETFA); assay: Test A post-emergence, giant foxtail; settings: after 13 d
Procedure, shortened: (§1)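 Plants sown in standard soil were grown 8 d in a glasshouse (24/16 °C day/night, 14 h light, 65% humidity), then sprayed with compound in acetone/water (50:50) with 0.5% Tween 20 at 15.625, 62.5 or 250 g/ha. Damage was scored after 13 d (0 = none, 100 = total).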

corn (Zea mays, ZEAMX) [2] = assay: Test A post-emergence, corn; settings: after 13 d
Procedure, shortened: as §1

[3] = test system: velvetleaf (Abutilon theophrasti, ABUTH); assay: Test A post-emergence, velvetleaf; settings: after 13 d
Procedure, shortened: as §1

[4] = test system: ivy-leaved morning glory (Ipomoea hederacea, IPOHE); assay: Test A pre-emergence, ivy-leaved morning glory; settings: after 13 d
Procedure, shortened: (§2)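 Pots of soil sown, sprayed at day 1 post-sowing: test compound at 15.625/62.5/250 g/ha in acetone:water 1:1 + 0.5% Tween 20. Glasshouse 24/16° C., 14 h light, 65% RH, watering twice daily. Readout: % damage after 13 d.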

maize = assay: Test D post-emergence, maize seed treated with a herbicide safener
Procedure: A formulation containing 50 g/L of the test chemical was prepared by dissolving the active ingredient in a mixture of organic solvents and emulsifier, details of which are provided in the table. This formulation was then mixed with a small, variable amount of acetone to aid dissolution, before addition of a 0.2% v/v aqueous solution of an adjuvant, as the aqueous diluent, to form an aqueous spray solution which contains a predetermined concentration of the active ingredient.
This aqueous spray solution was then sprayed onto plants including maize and wheat that had been seed treated with a herbicide safener, after one day's cultivation (for pre-emergence) or after about 12 days' cultivation (for post-emergence). The plants were grown from seeds sown in standard soil, placed in a glasshouse under controlled conditions (at 24/18° C. or 20/16° C., day/night; 16 h light; 65% humidity). After spray application the plants were then grown in a glasshouse under the same conditions and watered twice daily. After 15 d for post-emergence and 20 DAA for pre-emergence the test was evaluated (100=total damage to plant; 0=no damage to plant).

[5] = test system: redroot pigweed (Amaranthus retroflexus, AMARE); assay: Test A post-emergence, redroot pigweed; settings: after 13 d
Procedure, shortened: as §1

[6] = test system: redroot pigweed (Amaranthus retroflexus, AMARE); assay: Test A pre-emergence, redroot pigweed; settings: after 13 d
Procedure, shortened: as §2

corn (Zea mays, ZEAMX) [7] = assay: Test A pre-emergence, corn; settings: after 13 d
Procedure, shortened: as §2

[8] = test system: barnyardgrass (Echinochloa crus-galli, ECHCG); assay: Test A pre-emergence, barnyardgrass; settings: after 13 d
Procedure, shortened: as §2

[9] = test system: giant foxtail (Setaria faberi, SETFA); assay: Test A pre-emergence, giant foxtail; settings: after 13 d
Procedure, shortened: as §2

SMILES | damage to plant (100=total damage; 0=no damage) SETFA ([1]; Post-Emergence at 62.5 g/ha) | damage to plant (100=total damage; 0=no damage) SETFA ([1]; Post-Emergence at 250 g/ha) | damage to plant (100=total damage; 0=no damage) ZEAMX (corn (Zea mays, ZEAMX) [2]; Post-Emergence at 62.5 g/ha) | damage to plant (100=total damage; 0=no damage) ZEAMX (corn (Zea mays, ZEAMX) [2]; Post-Emergence at 250 g/ha) | damage to plant (100=total damage; 0=no damage) ABUTH ([3]; Post-Emergence at 62.5 g/ha) | damage to plant (100=total damage; 0=no damage) ABUTH ([3]; Post-Emergence at 250 g/ha) | damage to plant (100=total damage; 0=no damage) IPOHE ([4]; Pre-Emergence at 62.5 g/ha) | damage to plant (100=total damage; 0=no damage) IPOHE ([4]; Pre-Emergence at 250 g/ha) | damage to plant (100=total damage to plant; 0=no damage to plant), ZEAMX (maize; rate 130, evaluated after 15 d) | damage to plant (100=total damage to plant; 0=no damage to plant), ZEAMX (maize; rate 250, evaluated after 15 d) | damage to plant (100=total damage to plant; 0=no damage to plant), ZEAMX (maize; rate 500, evaluated after 15 d) | damage to plant (100=total damage; 0=no damage) AMARE ([5]; Post-Emergence at 62.5 g/ha) | damage to plant (100=total damage; 0=no damage) AMARE ([5]; Post-Emergence at 250 g/ha) | damage to plant (100=total damage; 0=no damage) AMARE ([6]; Pre-Emergence at 62.5 g/ha) | damage to plant (100=total damage; 0=no damage) AMARE ([6]; Pre-Emergence at 250 g/ha) | damage to plant (100=total damage; 0=no damage) ZEAMX (corn (Zea mays, ZEAMX) [7]; Pre-Emergence at 62.5 g/ha) | damage to plant (100=total damage; 0=no damage) ZEAMX (corn (Zea mays, ZEAMX) [7]; Pre-Emergence at 250 g/ha) | damage to plant (100=total damage; 0=no damage) ECHCG ([8]; Pre-Emergence at 62.5 g/ha) | damage to plant (100=total damage; 0=no damage) ECHCG ([8]; Pre-Emergence at 250 g/ha) | damage to plant (100=total damage; 0=no damage) SETFA ([9]; Pre-Emergence at 62.5 g/ha) | further results
CN1CC(c2cc(C(F)(F)F)n(C)n2)C(C(=O)Nc2ccc(F)nc2F)C1=O (racemic) [Compound 22] | 70 | 80 | 40 | 80 | 0 | 0 | 0 | 0 | 0 | 0 | 20 | 0 | 0 | 10 | 20 | 20 | 40 | 90 | 90 | 90 | damage to plant (100=total damage; 0=no damage) SETFA ([1]; Post-Emergence at 15.625 g/ha): 50; damage to plant (100=total damage; 0=no damage) ZEAMX (corn (Zea mays, ZEAMX) [2]; Post-Emergence at 15.625 g/ha): 20; damage to plant (100=total damage; 0=no damage) ABUTH ([3]; Post-Emergence at 15.625 g/ha): 0; damage to plant (100=total damage; 0=no damage) IPOHE ([4]; Pre-Emergence at 15.625 g/ha): 0; damage to plant (100=total damage; 0=no damage) AMARE ([5]; Post-Emergence at 15.625 g/ha): 0; damage to plant (100=total damage; 0=no damage) AMARE ([6]; Pre-Emergence at 15.625 g/ha): 0; damage to plant (100=total damage; 0=no damage) ZEAMX (corn (Zea mays, ZEAMX) [7]; Pre-Emergence at 15.625 g/ha): 0; damage to plant (100=total damage; 0=no damage) ECHCG ([8]; Pre-Emergence at 15.625 g/ha): 70; damage to plant (100=total damage; 0=no damage) SETFA ([9]; Pre-Emergence at 15.625 g/ha): 80; damage to plant (100=total damage; 0=no damage) SETFA ([9]; Pre-Emergence at 250 g/ha): 90
CN1CC(c2cc(C(F)(F)F)n(C)n2)C(C(=O)Nc2cccc(F)n2)C1=O (racemic) [Compound 24] | 70 | 80 | 10 | 40 | 0 | 0 | 0 | 40 | 0 | 0 | 20 | 0 | 0 | 0 | 0 | 30 | 80 | 100 | 100 | 90 | damage to plant (100=total damage; 0=no damage) SETFA ([1]; Post-Emergence at 15.625 g/ha): 20; damage to plant (100=total damage; 0=no damage) ZEAMX (corn (Zea mays, ZEAMX) [2]; Post-Emergence at 15.625 g/ha): 0; damage to plant (100=total damage; 0=no damage) ABUTH ([3]; Post-Emergence at 15.625 g/ha): 0; damage to plant (100=total damage; 0=no damage) IPOHE ([4]; Pre-Emergence at 15.625 g/ha): 0; damage to plant (100=total damage; 0=no damage) AMARE ([5]; Post-Emergence at 15.625 g/ha): 0; damage to plant (100=total damage; 0=no damage) AMARE ([6]; Pre-Emergence at 15.625 g/ha): 0; damage to plant (100=total damage; 0=no damage) ZEAMX (corn (Zea mays, ZEAMX) [7]; Pre-Emergence at 15.625 g/ha): 0; damage to plant (100=total damage; 0=no damage) ECHCG ([8]; Pre-Emergence at 15.625 g/ha): 90; damage to plant (100=total damage; 0=no damage) SETFA ([9]; Pre-Emergence at 15.625 g/ha): 70; damage to plant (100=total damage; 0=no damage) SETFA ([9]; Pre-Emergence at 250 g/ha): 90
CN1CC(c2cc(C(F)(F)F)n(C)n2)C(C(=O)Nc2ccc(F)cc2C(C)(F)F)C1=O (racemic) [Compound 26] | 80 | 90 | 60 | 80 | 0 | 0 | 30 | 70 | 0 | 0 | 10 | 0 | 0 | 0 | 0 | 70 | 90 | 90 | 90 | 90 | damage to plant (100=total damage; 0=no damage) SETFA ([9]; Pre-Emergence at 250 g/ha): 90
CN1C[C@H](c2nn(C)c3c(F)cccc23)[C@@H](C(=O)Nc2cccc(F)c2F)C1=O [Compound 2] | 70 | 80 | 0 | 40 | 0 | 0 | 0 | 0 | 0 | 0 | 20 | 0 | 0 | 0 | 0 | 0 | 10 | 90 | 90 | 90 | damage to plant (100=total damage; 0=no damage) SETFA ([1]; Post-Emergence at 15.625 g/ha): 0; damage to plant (100=total damage; 0=no damage) ZEAMX (corn (Zea mays, ZEAMX) [2]; Post-Emergence at 15.625 g/ha): 10; damage to plant (100=total damage; 0=no damage) ABUTH ([3]; Post-Emergence at 15.625 g/ha): 0; damage to plant (100=total damage; 0=no damage) IPOHE ([4]; Pre-Emergence at 15.625 g/ha): 0; damage to plant (100=total damage; 0=no damage) AMARE ([5]; Post-Emergence at 15.625 g/ha): 0; damage to plant (100=total damage; 0=no damage) AMARE ([6]; Pre-Emergence at 15.625 g/ha): 10; damage to plant (100=total damage; 0=no damage) ZEAMX (corn (Zea mays, ZEAMX) [7]; Pre-Emergence at 15.625 g/ha): 0; damage to plant (100=total damage; 0=no damage) ECHCG ([8]; Pre-Emergence at 15.625 g/ha): 90; damage to plant (100=total damage; 0=no damage) SETFA ([9]; Pre-Emergence at 15.625 g/ha): 90; damage to plant (100=total damage; 0=no damage) SETFA ([9]; Pre-Emergence at 250 g/ha): 90
CCn1nc([C@H]2CN(C)C(=O)[C@@H]2C(=O)Nc2cccc(F)c2F)c2c(F)cccc21 [Compound 7] | 70 | 80 | 40 | 80 | 0 | 0 | 20 | 80 | 0 | 0 | 10 | 0 | 0 | 0 | 0 | 30 | 90 | 80 | 90 | 80 | damage to plant (100=total damage; 0=no damage) SETFA ([1]; Post-Emergence at 15.625 g/ha): 60; damage to plant (100=total damage; 0=no damage) ZEAMX (corn (Zea mays, ZEAMX) [2]; Post-Emergence at 15.625 g/ha): 20; damage to plant (100=total damage; 0=no damage) ABUTH ([3]; Post-Emergence at 15.625 g/ha): 0; damage to plant (100=total damage; 0=no damage) IPOHE ([4]; Pre-Emergence at 15.625 g/ha): 20; damage to plant (100=total damage; 0=no damage) AMARE ([5]; Post-Emergence at 15.625 g/ha): 0; damage to plant (100=total damage; 0=no damage) AMARE ([6]; Pre-Emergence at 15.625 g/ha): 0; damage to plant (100=total damage; 0=no damage) ZEAMX (corn (Zea mays, ZEAMX) [7]; Pre-Emergence at 15.625 g/ha): 20; damage to plant (100=total damage; 0=no damage) ECHCG ([8]; Pre-Emergence at 15.625 g/ha): 70; damage to plant (100=total damage; 0=no damage) SETFA ([9]; Pre-Emergence at 15.625 g/ha): 70; damage to plant (100=total damage; 0=no damage) SETFA ([9]; Pre-Emergence at 250 g/ha): 90
